Experimental findings from US9896448B2, “Pyrimido[4,5-b]quinoline-4,5(3H, 10H)-dione derivatives” (Novartis AG, priority 2014, dated 2018) are described below.

Structures are written as SMILES.

For one test, the system named is CFTR-Y122X. Description: CFTR-Y122X assay (dual reporter Hek293 cell lines, Renilla luminescence readthrough). The class given is cell-based, human. To be noted: for Emax / AC50: nonsense mutation suppression, 24 h incubation, tested up to 100 μM; for Emax: 100% = 14 mM paromomycin, read-out: Amax; for AC50: Renilla luminescence. The source says:
In particular, compounds of formula (I) act as nonsense mutation suppressors on frequent PTCs, e.g. on Y122X in the mRNA of the cystic fibrosis conductance regulator protein (CFTR). This can be determined in vitro, for example, using cell lines expressing GFP-CFTR-Y122X-Renilla constructs as described herein.
Activity of compounds of the present invention was examined in recombinant, dual reporter isogenic Hek293 cell lines (“CFTR-Y122X assay”). The engineered reporter constructs contained the 18 bp sequence strech corresponding to a common Y122X PTC mutation in CFTR class I mutant patients (see Sermet-Gaudelus, BMC Medicine, 2007, 5(5)). Instead of a tyrosine (Y) in position 122 of the CFTR protein a TGA stop codon interrupts the open reading frame (Y122X) of the corresponding mRNA. This TGA stop codon triplet (followed by the pyrimidine base cytosine) is permissive to aminoglycoside mediated translational readthrough which served as positive control for high throughput screening. A corresponding TAA stop codon variant and a wildtype non mutated construct was used for confirmation and counter screening. The CFTR sequence was sandwitched between an eGFP reporter, and a triple myc tag sequence fused to a full length Renilla reporter. All sequences, including an intron containing one positioned pre-eGFP (b-globin intron) were cloned in frame. The corresponding expression constructs were stably expressed in the isogenic HEK-R4 cell host (Invitrogen Incorp.) and selected by blasticidin resistance. The isogenic integration of the construct minimizes gene dose effects and improves assay reproducibility. Stably integrated single cell derived clones were selected and characterized for aminoglycoside mediated readthrough. […] Readthrough of Y122X accumulates an intracellular localized fusion protein approximately 65.5 kDa in size as controlled by western blot analysis and immunofluorescence using an anti-renilla antibody. The eGFP reporter pre-PTC mutation serves as visual control for genetic stability of the screening clones and minimizes protein degradation of small fusion protein amounts. In the assay, compound concentration was 10 μM. In miniaturized 1536 well format 2000 cells were dispensed in 4 μl/well and incubated for 24 h at 37° C., 5% CO2. 40 nl compounds were placed on the cells with control wells containing 1 ul Paramomycin and 14.4 mM final concentration. Compounds were incubated for 24 h. Renilla Glo substrate (2.5 ul) was added and plates were centrifuged and processed for luminescence measurement using various readers. Activity calculation was done using the equation: A1(%)=100*(S−NC)/(AC−NC) where AC, NC and S correspond to active controls (injection of Stimulation buffer=100% stimulation), neutral controls (buffer injection which […]) and screening samples (S). NC corresponds to 0% activity whereas AC is 100% activity (14 mM paromomycin). False positive artefacts were removed in confirmation and validation screening using the same assay format followed by counterscreening using the respective wildtype construct (w/o PTC mutation) cell model. Compounds were tested up to 100 μM compound concentration.

Test [1] concerns alpha-L-Iduronidase W402X in Hurler patient derived fibroblast cells. The experiment in a line: Hurler patient derived fibroblast cell cultures: restored alpha-L-iduronidase activity (W402X readthrough). The class given is cell-based. Conditions: Homo sapiens, 192 h, 8 days incubation, highest concentration 20 uM; for Emax: 100% = 14 mM paromomycin, read-out: Amax. The source says: Activity of compounds of the present invention was examined in patient derived fibroblast cells. The genotyped cells were derived from the Coriell Institute (#GM00798) and contain an in frame homozygous TGG to TAG change at nucleotide 1293 of exon 9 which results in a W402X mutation. The W402X mutation is one of the most common Hurler syndromes causing loss of function mutation. Between 60-70% of genotyped patients contain either the Q70X and/or the W402X in mutation and are classified as severe MPSI patients. This TAG stop codon triplet is permissive to aminoglycoside mediated translational readthrough which served as activity control for compound testing. Readthrough of W402X restores alpha-L-Iduronidase activity which results in removal of lysosomal accumulated Glycosaminoglycan's. Iduronidase expression could neither be detected by Taqman PCR© nor by enzyme activity or ELISA methods without compound stimulation. Compounds were tested in concentration response mode. Therefore 5000 patient cells/40 ul/well in 384 well plates were used. Compound dilutions were derived from freshly prepared 10 mM compound stock solutions. Highest concentration was 20 uM and subsequently diluted 1: 3.16 (8 point dilutions, n=4). Final DMSO concentration was below 0.5% and tested to be without effect on cell viability, growth and readthrough. Cells were incubated for 8 days with one cell media and compound exchange at day 3. Thereafter cell media was removed and cells were lysed (0.4 M Sodiumformate, 0.1% NaN3, 0.9% NaCl, 0.2% Triton, pH 3.5). Restored alpha-L-iduronidase activity in cell lysates was measured with the fluorescent 4-MU iduronide substrate (5 ul of 0.4 mM 4 Methylumbelliferyl alpha-L-iduronide/well) after 48 h incubation. Paromomycin was used as reference control (14 mM=100% control).

For the compound `CC(C)c1nc2c(c(=O)c3ccccc3n2C)c(=O)n1-c1ccn(C)n1` [Example 1.4, 2-isopropyl-10-methyl-3-(1-methyl-1H-pyrazol-3-yl)pyrimido[4,5-b]quinoline-4,5(3H,10H)-dione], in the test on CFTR-Y122X (Homo sapiens, HEK293), the Emax came out at 133% and the AC50 was found to be 13.6 µM. Also, the Emax in test [1] amounted to 21%.

For `CCCc1nc2c(c(=O)c3ccccc3n2C)c(=O)n1-c1ccn(C)n1` [Example 1.3, 10-methyl-3-(1-methyl-1H-pyrazol-3-yl)-2-propylpyrimido[4,5-b]quinoline-4,5(3H,10H)-dione], in the test on CFTR-Y122X (Homo sapiens, HEK293), the Emax is 202% and the AC50 stood at 31.8 µM. Further, the Emax in test [1] amounted to 8%.

As to `CC(C)c1nc2c(c(=O)c3ccccc3n2C)c(=O)n1-c1ccsc1` [Example 1.5, 2-isopropyl-10-methyl-3-(thiophen-3-yl)pyrimido[4,5-b]quinoline-4,5(3H,10H)-dione], the Emax with CFTR-Y122X (Homo sapiens, HEK293) came to 128%; in test [1] it was 5%. The compound further returned a half-maximal activity concentration (AC50) in the test with CFTR-Y122X (Homo sapiens, HEK293) of 12.3 µM.

As for `CC(C)c1nc2c(c(=O)c3ccccc3n2C)c(=O)n1-c1ccnn1C` [2-isopropyl-10-methyl-3-(1-methyl-1H-pyrazol-5-yl)pyrimido[4,5-b]quinoline-4,5(3H,10H)-dione], the “suppression, % of paromomycin reference activity” value in the test with CFTR-Y122X (at the above dose ranges (up to 100 μM), paromomycin reference = 100%) is “less than 5%”.

As to `CCCc1nc2c(c(=O)c3ccccc3n2C)c(=O)n1-c1ccccn1` [Example 1.2, 10-methyl-2-propyl-3-(pyridin-2-yl)pyrimido[4,5-b]quinoline-4,5(3H,10H)-dione], in the test with CFTR-Y122X (Homo sapiens, HEK293), the Emax amounted to 235% and the AC50 was 18 µM. Further, the Emax in test [1] amounted to 1%.

In the case of `Cn1c2ccccc2c(=O)c2c(=O)n(-c3ccccn3)c(C3CCC3)nc21` [Example 1.8, 2-cyclobutyl-10-methyl-3-(pyridin-2-yl)pyrimido[4,5-b]quinoline-4,5(3H,10H)-dione], the Emax was 271% in the test with CFTR-Y122X (Homo sapiens, HEK293) and 184% in test [1]. The AC50 was 4.8 µM in the test with CFTR-Y122X (Homo sapiens, HEK293) and 9.9 µM in test [1] (8 point dilutions).

For the compound `CC(C)c1nc2c(c(=O)c3ccccc3n2C)c(=O)n1-c1ccncc1` [Example 1.6, 2-isopropyl-10-methyl-3-(pyridin-4-yl)pyrimido[4,5-b]quinoline-4,5(3H,10H)-dione], in the test on CFTR-Y122X (Homo sapiens, HEK293), the Emax was 14.9% and the activity was half-maximal at 2.9 µM (AC50). The Emax in test [1] was determined as 5%.

Consider `CC(C)c1nc2c(c(=O)c3ccccc3n2C)c(=O)n1-c1ccccn1` [Example 1.7, 2-isopropyl-10-methyl-3-(pyridin-2-yl)pyrimido[4,5-b]quinoline-4,5(3H,10H)-dione], for which the Emax stood at 164% in the test on CFTR-Y122X (Homo sapiens, HEK293) and 11% in test [1]. The same compound yielded a concentration at half-maximal activity (AC50) with CFTR-Y122X (Homo sapiens, HEK293) of 11.7 µM.

Turning to `NC[C@@H]1O[C@H](O[C@H]2[C@@H](O)[C@H](O[C@@H]3[C@@H](O)[C@H](N)C[C@H](N)[C@H]3O[C@H]3O[C@H](CO)[C@@H](O)[C@H](O)[C@H]3N)O[C@@H]2CO)[C@H](N)[C@@H](O)[C@@H]1O` [paromomycin, reference compound], the EC50 in the test on CFTR-Y122X (Homo sapiens, HEK293, clone selected for HTS assay development, read-out: EC50 (response of selected clone to aminoglycoside mediated readthrough)) came out at 1500 µM.

On to `CC(C)c1nc2c(c(=O)c3ccccc3n2C)c(=O)n1-c1cc[nH]n1` [Example 1.1, 2-isopropyl-10-methyl-3-(1H-pyrazol-3-yl)pyrimido[4,5-b]quinoline-4,5(3H,10H)-dione], for which, in the test on CFTR-Y122X (Homo sapiens, HEK293), the Emax stood at 14.8% and the activity was half-maximal at 6.7 µM (AC50). Moreover, the Emax in test [1] was determined as 7%.
